We go through 4 molecules from ChEMBL document CHEMBL1777666 (Bioorg Med Chem Lett, 2009).

Usually IC50 stands for the concentration at which inhibition is half-maximal.

A short description of assay [1]: Inhibition of human recombinant aldose reductase 2 expressed in Escherichia coli BL21 after 10 mins by spectrophotometry analysis.
In assay [2] the target is Aldehyde reductase AKR1A1 (Homo sapiens). Kind of assay: Inhibition of human recombinant aldehyde reductase after 10 mins by spectrophotometry analysis.

Consider `O=C(O)Cn1cc(Cc2nc3c(F)c(F)cc(F)c3s2)c2ccccc21` [LIDORESTAT], for which the IC50 in assay [1] is 5 nM.

On to `O=C(O)Cn1cc(Cc2nc3c(F)c(F)cc(F)c3s2)c2cccnc21`, for which the IC50 in assay [1] turned out to be 7 nM.

On to `CCc1ccc2c(Cc3nc4c(F)c(F)cc(F)c4s3)cn(CC(=O)O)c2n1`, for which the IC50 in assay [1] is 12 nM.

Turning to `Cc1ccc2c(Cc3nc4c(F)c(F)cc(F)c4s3)cn(CC(=O)O)c2n1`, the IC50 was 8 nM in assay [1] and > 100000 nM in assay [2].
